Assay results reported in patent US20180333382A1, “PHARMACEUTICAL COMPOSITIONS COMPRISING DGLA AND USE OF SAME” (DS Biopharma Limited, priority 2017, published 2018).

Tested on: patients with moderate to severe atopic dermatitis
Assay: Phase II study of oral DS107G vs placebo: IGA, EASI, SCORAD, pruritus VAS, BSA, POEM, DLQI
Format: in vivo, human
Set-up: key to EASI, Actual, Median / EASI, Actual, Mean: EASI composite score, range 0-72
Conditions: for Percentage Change of BSA Levels From Baseline, Mean / Percentage Change of DLQI Scores From Baseline, Mean / Percentage Change of EASI Scores From Baseline, Mean / Percentage Change of IGA Scores From Baseline, Mean / Percentage Change of POEM Scores From Baseline, Mean / Percentage Change of SCORAD Levels From Baseline, Mean / Percentage Change of VAS Scores From Baseline, Mean: ITT Population
Protocol: A randomized, double-blind, placebo-controlled, phase II study was performed to assess the efficacy and safety of orally administered DS107G (DGLA) to patients with moderate to severe atopic dermatitis. The primary objective of the study was to compare the efficacy of orally administered DS107G capsules, versus placebo, in the treatment of adult patients with moderate to severe atopic dermatitis. The secondary objective was to assess the safety of orally administered DS107G capsules, versus placebo, in adult patients with moderate to severe atopic dermatitis. The primary study endpoint was the proportion of patients achieving an IGA (Investigator Global Assessment) of 0 (clear) or 1 (almost clear) and a decrease of at least 2 points in IGA at week 8. Secondary study endpoints included:
Approximately 100 patients with moderate to severe atopic dermatitis were included in this multicenter, double-blind, placebo controlled, phase IIa study. All subjects signed an informed consent and underwent screening for study eligibility. Subjects were randomized (1:1) at baseline visit to either receive oral DS107G 2 g or placebo, once daily for 8 weeks in a fasting state.
Subjects visited the clinic on 6 occasions: at screening, baseline, week 2, week 4, week 8 (end of treatment/early termination) and week 10 (follow-up). All subjects exited the study at the week 10 visit. The primary efficacy variable was the proportion of patients achieving an IGA of 0 (clear) or 1 (almost clear), and a decrease of at least 2 points in IGA at week 8. Secondary efficacy variables included: IGA at other visits, pruritus (obtained from the SCORAD visual analog scale), EASI, BSA, POEM, DLQI, SCORAD and TEWL (for selected sites only). Safety was assessed through adverse events, physical examination, vital signs and safety laboratory tests (including pregnancy tests for women of childbearing potential). Pharmacokinetic samples were obtained at Baseline (Day 0), week 4 and week 8 visits in order to measure total and free DGLA plasma trough levels. Separate plasma samples were retained for later analysis of total fatty acid profile and interleukin profile.
The EASI is a composite score ranging from 0-72 that takes into account the degree of erythema, induration/papulation, excoriation, and lichenification (each scored from 0 to 3 separately) for each of four body regions, with adjustment for the percent of BSA involved for each body region and for the proportion of the body region to the whole body. A detailed procedure of EASI score calculation is provided below.
SCORAD is calculated as follows: Six items (erythema, edema/papulation, oozing/crusts, excoriation, lichenification, and dryness) are selected to evaluate the AD severity. The intensity of each item is graded using a 4-point scale: • 0=No symptoms • 1=Mild • 2=Moderate • 3=Severe
Investigator's global assessment is determined as follows:
Body Surface Area (BSA). The overall BSA affected by AD will be evaluated (from 0 to 100%) at each visit. One patient's palm represents 1% of his/her total BSA. For all study visits, except at screening, the BSA of involved skin will be measured with the SCORAD measurement and evaluated as a separate endpoint.
The Patient-Oriented Eczema Measure (POEM) is determined using the following questionnaire:
The Dermatology Life Quality Index (DLQI) is determined using the following questionnaire:
Subjects who fulfilled all the inclusion and none of the exclusion criteria were accepted in the study. Each subject read and signed an informed consent form prior to any screening procedures being performed. This study involved a comparison of DS107G (DGLA) with placebo, administered orally once daily upon waking for a total duration of 8 weeks. Subjects were randomized to one of the two treatment groups in a 1:1 ratio:
The Investigator's Global Assessment (IGA) of Disease Severity was assessed at each visit. The IGA is a global assessment of the current state of the disease. […]

[1] = DS107 Phase 2a I.T.T. population, daily, 8 weeks
[2] = Table 9A: title Week 4, head Week 8/ET, n=34
[3] = Table 9A: title Week 4, head Week 8/ET, n=35
[4] = Week 8, ITT total population, N=51
[5] = Week 8, ITT, Moderate at baseline
[6] = Week 8, ITT, Very Severe/Severe at baseline
[7] = Week 8/ET, DS107G 2 g once daily, n=35
[8] = total study population, oral, once daily, 8 weeks

## CCCCC/C=C\C/C=C\C/C=C\CCCCCCC(=O)O [DS107G, Dihomo gamma linolenic acid]
African America patients
  patients classified as Responders (IGA 0 or 1 at Week 8, 2-point decrease): 56%
Caucasian patients
  patients classified as Responders (IGA 0 or 1 at Week 8, 2-point decrease): 7%
[1]
  BSA Change from Baseline: −38%
  EASI Percentage Change from Baseline: −46%
  EASI-50 (%): 57%
  EASI-75 (%): 37%
  IGA responder (%): 21%
  Pruritus Percentage Change from Baseline: −41%
Week 2
  Percentage Change of BSA Levels From Baseline, Mean: −6.3%
  Percentage Change of DLQI Scores From Baseline, Mean: −29.5%
  Percentage Change of EASI Scores From Baseline, Mean: −15.0%
  Percentage Change of IGA Scores From Baseline, Mean: −11.7%
  Percentage Change of POEM Scores From Baseline, Mean: −30.2%
  Percentage Change of SCORAD Levels From Baseline, Mean: −12.0%
  Percentage Change of VAS Scores From Baseline, Mean: −20.9%
Week 4
  Percentage Change of BSA Levels From Baseline, Mean: −21.9%
  Percentage Change of DLQI Scores From Baseline, Mean: −50.3%
  Percentage Change of EASI Scores From Baseline, Mean: −37.7%
  Percentage Change of IGA Scores From Baseline, Mean: −25.7%
  Percentage Change of POEM Scores From Baseline, Mean: −41.8%
  Percentage Change of SCORAD Levels From Baseline, Mean: −28.8%
  Percentage Change of VAS Scores From Baseline, Mean: −39.5%
Week 8
  Percentage Change of BSA Levels From Baseline, Mean: −38.2%
  Percentage Change of DLQI Scores From Baseline, Mean: −43.2%
  Percentage Change of EASI Scores From Baseline, Mean: −45.6%
  Percentage Change of IGA Scores From Baseline, Mean: −38.4%
  Percentage Change of POEM Scores From Baseline, Mean: −37.2%
  Percentage Change of SCORAD Levels From Baseline, Mean: −36.1%
  Percentage Change of VAS Scores From Baseline, Mean: −41.0%
Week 10
  Percentage Change of BSA Levels From Baseline, Mean: −37.7%
  Percentage Change of DLQI Scores From Baseline, Mean: −53.6%
  Percentage Change of EASI Scores From Baseline, Mean: −49.5%
  Percentage Change of IGA Scores From Baseline, Mean: −37.5%
  Percentage Change of POEM Scores From Baseline, Mean: −43.4%
  Percentage Change of SCORAD Levels From Baseline, Mean: −40.5%
  Percentage Change of VAS Scores From Baseline, Mean: −44.2%
ITT analysis, p=0.057
  primary end point (two point drop in IGA and end of treatment IGA of 0 or 1) vs placebo: clinically significant trend
[2]
  visual analog scale of pruritus, Change from baseline, LSMEANS: −2.1
  visual analog scale of pruritus, Change from baseline, Mean: −2.8
  visual analog scale of pruritus, Change from baseline, Median: −2.0
  visual analog scale of pruritus, Percent Change from Baseline, Mean: −41.0%
  visual analog scale of pruritus, Percent Change from Baseline, Median: −35.3%
[3]
  visual analog scale of pruritus, Actual, Mean: 4.6
  visual analog scale of pruritus, Actual, Median: 4.0
Table 9B: Week 8/ET, n=34
  visual analog scale of pruritus, Change from baseline, LSMEANS: −2.1
  visual analog scale of pruritus, Change from baseline, Mean: −2.8
  visual analog scale of pruritus, Change from baseline, Median: −2.0
  visual analog scale of pruritus, Percent Change from Baseline, Mean: −41.0%
  visual analog scale of pruritus, Percent Change from Baseline, Median: −35.3%
Table 9B: Week 8/ET, n=35
  visual analog scale of pruritus, Actual, Mean: 4.6
  visual analog scale of pruritus, Actual, Median: 4.0
[4]
  IGA score 0—Clear: 4 ( 7.8) n (%)
  IGA score 1—Almost Clear: 7 ( 13.7) n (%)
  IGA score 2—Mild: 9 ( 17.6) n (%)
  IGA score 3—Moderate: 10 ( 19.6) n (%)
  IGA score 4—Severe: 4 ( 7.8) n (%)
  IGA score 5—Very Severe: 1 ( 2.0) n (%)
  Non-Responders: 37 ( 72.5) n (%)
  Responders (decrease of at least 2 points in IGA score at Week 8): 14 ( 27.5) n (%)
[5]
  IGA score 0—Clear: 4 (13.8) n (%)
  IGA score 1—Almost Clear: 4 (13.8) n (%)
  IGA score 2—Mild: 6 (20.7) n (%)
  IGA score 3—Moderate: 4 (13.8) n (%)
  IGA score 4—Severe: 1 (3.4) n (%)
  IGA score 5—Very Severe: 0 (0.0) n (%)
  Non-Responders: 21 (72.4) n (%)
  Responders: 8 (27.6) n (%)
[6]
  IGA score 0—Clear: 0 (0.0) n (%)
  IGA score 1—Almost Clear: 3 (13.6) n (%)
  IGA score 2—Mild: 3 (13.6) n (%)
  IGA score 3—Moderate: 6 (27.3) n (%)
  IGA score 4—Severe: 3 (13.6) n (%)
  IGA score 5—Very Severe: 1 (4.5) n (%)
  Non-Responders: 16 (72.7) n (%)
  Responders: 6 (27.3) n (%)
[7]
  EASI, Actual, Mean: 9.3
  EASI, Actual, Median: 7.4
  EASI, Change from baseline, LSMEANS (ANCOVA): −8.0
  EASI, Change from baseline, Mean: −9.4
  EASI, Change from baseline, Median: −8.0
  EASI, Percent Change from Baseline, Mean: −45.6%
  EASI, Percent Change from Baseline, Median: −62.7%
Week 8/ET, n=34
  SCORAD, Change from baseline, LSMEANS: −18.7
  SCORAD, Change from baseline, Mean: −21.1
  SCORAD, Change from baseline, Median: −21.2
  SCORAD, Percent Change from Baseline, Mean: −36.1%
  SCORAD, Percent Change from Baseline, Median: −43.4%
Week 8/ET, n=35
  SCORAD, Actual, Mean: 35.9
  SCORAD, Actual, Median: 28.6
  body surface area affected by atopic dermatitis, Actual, Mean: 17.6
  body surface area affected by atopic dermatitis, Actual, Median: 12.0
  body surface area affected by atopic dermatitis, Change from baseline, LSMEANS: −8.9
  body surface area affected by atopic dermatitis, Change from baseline, Mean: −9.6
  body surface area affected by atopic dermatitis, Change from baseline, Median: −8.0
  body surface area affected by atopic dermatitis, Percent Change from Baseline, Mean: −38.2%
  body surface area affected by atopic dermatitis, Percent Change from Baseline, Median: −50.0%
In vivo
  response rate in subjects having low baseline eosinophil counts: higher response rate
Moderate patient subgroup (n=67), p=0.036
  primary end point (two point drop in IGA and end of treatment IGA of 0 or 1) vs placebo: statistically significant improvement
[8]
  EASI (% decrease): 46%
  IGA responders (%): 22%
  Pruritus delta (as measured by VAS): 41%
  Pruritus score decrease (as measured by VAS): c. (2.8)
  SCORAD (% decrease): 36%
Within four weeks of dosing, p=0.015
  pruritus score [visual analog scale] vs placebo: statistically significant reduction of itch
